From ChEMBL document CHEMBL1201862, “PubChem BioAssay data set” (2004)
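Assay format: 96-well plates, 48-hour exposure. At the GI50, growth is halved.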 Calls of active or inactive are those of the source. Rule as the data show it: active = GI50 up to about 1.1 µM and inactive = higher.

Key:
Assay in all cases: growth of human tumour cells (NCI), 48 h
Hs-578T = test system: Hs-578T
UO-31 = test system: UO-31
TK-10 = test system: TK-10
NCI/ADR-RES = test system: NCI/ADR-RES
CCRF-CEM = test system: CCRF-CEM
Malme-3M = test system: Malme-3M
MDA-N = test system: MDA-N
HOP-92 = test system: HOP-92
M14 = test system: M14
OVCAR-8 = test system: OVCAR-8
K562 = test system: K562
HCC 2998 = test system: HCC 2998
SN12C = test system: SN12C
UACC-257 = test system: UACC-257
A498 = test system: A498
OVCAR-3 = test system: OVCAR-3
NCI-H226 = test system: NCI-H226
HT-29 = test system: HT-29
NCI-H522 = test system: NCI-H522
U-251 = test system: U-251

Compound | GI50 (Hs-578T) | GI50 (UO-31) | GI50 (TK-10) | GI50 (NCI/ADR-RES) | GI50 (CCRF-CEM) | GI50 (Malme-3M) | GI50 (MDA-N) | GI50 (HOP-92) | GI50 (M14) | GI50 (OVCAR-8) | GI50 (K562) | GI50 (HCC 2998) | GI50 (SN12C) | GI50 (UACC-257) | GI50 (A498) | GI50 (OVCAR-3) | GI50 (NCI-H226) | GI50 (HT-29) | GI50 (NCI-H522) | GI50 (U-251)
COc1cc(C(C[N+](=O)[O-])SC(C)=O)ccc1OCc1ccccc1 (stereo not given) | 3.31 µM (inactive) | 4.57 µM (inactive) | 6.35 µM (inactive) | 12.2 µM (inactive) | 1.18 µM (inactive) | 12.3 µM (inactive) | 2.88 µM (inactive) | 18.9 µM (inactive) | 4.89 µM (inactive) | 5.9 µM (inactive) | 1.38 µM (inactive) | 8.45 µM (inactive) | 4.17 µM (inactive) | 5.02 µM (inactive) | 7.57 µM (inactive) | 3.01 µM (inactive) | 7.91 µM (inactive) | 2.4 µM (inactive) | 0.345 µM (active) | 6.9 µM (inactive)
O=C(O)CCSCc1ccc(I)cc1 | > 100 µM (inactive) | > 100 µM (inactive) | > 100 µM (inactive) | > 100 µM (inactive) | > 100 µM (inactive) | > 100 µM (inactive) | > 100 µM (inactive) | > 100 µM (inactive) | > 100 µM (inactive) | > 100 µM (inactive) | > 100 µM (inactive) | > 100 µM (inactive) | > 100 µM (inactive) | > 100 µM (inactive) | > 100 µM (inactive) | > 100 µM (inactive) | > 100 µM (inactive) | > 100 µM (inactive) | > 100 µM (inactive) | > 100 µM (inactive)
O=C1N/C(=N\N=C\c2ccccc2)C(c2ccccc2)O1 (stereo not given) | > 100 µM (inactive) | 15.9 µM (inactive) | 24 µM (inactive) | 33.3 µM (inactive) | 12.7 µM (inactive) | > 100 µM (inactive) | > 100 µM (inactive) | > 100 µM (inactive) | 54 µM (inactive) | 47.5 µM (inactive) | 35.8 µM (inactive) | 17.1 µM (inactive) | 71.1 µM (inactive) | 66.1 µM (inactive) | 99.3 µM (inactive) | 27.4 µM (inactive) | 30.9 µM (inactive) | 53 µM (inactive) | > 100 µM (inactive) | 58.9 µM (inactive)
O=[N+]([O-])c1ccc2[nH]nc(OCc3ccccc3Cl)c2c1 | 42.3 µM (inactive) | > 10 µM (inactive) | 29.9 µM (inactive) | 25 µM (inactive) | > 100 µM (inactive) | 98.9 µM (inactive) | > 100 µM (inactive) | 20.5 µM (inactive) | > 100 µM (inactive) | 27 µM (inactive) | > 100 µM (inactive) | 59.6 µM (inactive) | > 100 µM (inactive) | > 100 µM (inactive) | 37.5 µM (inactive) | 23.4 µM (inactive) | 68.5 µM (inactive) | > 100 µM (inactive) | 17.1 µM (inactive) | 28.3 µM (inactive)
C=C1C(=O)O[C@H]2C/C(C)=C/CC/C(C)=C/CC[C@@](C)(O)[C@@H](I)C[C@@H]12 | 5.79 µM (inactive) | 11.7 µM (inactive) | 11.5 µM (inactive) | 6.3 µM (inactive) | 1.49 µM (inactive) | 4.49 µM (inactive) | 3.33 µM (inactive) | 2.34 µM (inactive) | 9.64 µM (inactive) | 0.791 µM (active) | 2.94 µM (inactive) | 12.5 µM (inactive) | 5.06 µM (inactive) | 12.4 µM (inactive) | 17.7 µM (inactive) | 12.3 µM (inactive) | 3.42 µM (inactive) | 6.52 µM (inactive) | 2.64 µM (inactive) | 13.6 µM (inactive)
CC(=O)C(C(c1ccccc1)N1CCOCC1)N1CCOCC1 (stereo not given) | > 100 µM (inactive) | > 100 µM (inactive) | 22.6 µM (inactive) | > 100 µM (inactive) | 16.9 µM (inactive) | > 100 µM (inactive) | > 100 µM (inactive) | > 100 µM (inactive) | > 100 µM (inactive) | > 100 µM (inactive) | > 100 µM (inactive) | 20.3 µM (inactive) | > 100 µM (inactive) | 18.5 µM (inactive) | > 100 µM (inactive) | > 100 µM (inactive) | > 100 µM (inactive) | > 100 µM (inactive) | > 100 µM (inactive) | > 100 µM (inactive)
CC1(C)C(CBr)=[N+]([O-])C(C)(C)N1O | > 10 µM (inactive) | > 10 µM (inactive) | 5.5 µM (inactive) | > 7.24 µM (inactive) | 0.604 µM (active) | 2.49 µM (inactive) | 3.99 µM (inactive) | 2.27 µM (inactive) | 2.37 µM (inactive) | > 6.97 µM (inactive) | > 4.93 µM (inactive) | > 10 µM (inactive) | 4.04 µM (inactive) | 8.99 µM (inactive) | > 10 µM (inactive) | 3.32 µM (inactive) | > 10 µM (inactive) | > 8.75 µM (inactive) | 1.44 µM (inactive) | > 10 µM (inactive)
O=C(c1ccccc1)C(Nc1ccc2ccccc2c1)c1ccccc1 (stereo not given) | 40.2 µM (inactive) | > 65 µM (inactive) | 29 µM (inactive) | 25.2 µM (inactive) | 13.7 µM (inactive) | 30.2 µM (inactive) | 7.05 µM (inactive) | 41.7 µM (inactive) | 31.3 µM (inactive) | 42 µM (inactive) | 7.36 µM (inactive) | 20.7 µM (inactive) | 26.9 µM (inactive) | 15.3 µM (inactive) | 21.3 µM (inactive) | 13.9 µM (inactive) | > 60.7 µM (inactive) | 24.5 µM (inactive) | 6.98 µM (inactive) | 21.9 µM (inactive)
COc1cccc2c1C(=O)c1c(O)c3c(c(O)c1C2=O)C[C@@](O)(C(=O)CO)CC3OC1CC(N)C(OC2CCCCO2)C(C)O1 (stereo not given in full) | 0.164 µM (active) | 0.762 µM (active) | 1.37 µM (inactive) | 0.959 µM (active) | 0.168 µM (active) | 0.664 µM (active) | 0.124 µM (active) | 0.0715 µM (active) | 1.2 µM (inactive) | 0.35 µM (active) | 0.646 µM (active) | 7.19 µM (inactive) | 1.27 µM (inactive) | 1.17 µM (inactive) | 0.309 µM (active) | 1.56 µM (inactive) | 0.419 µM (active) | 0.853 µM (active) | 0.541 µM (active) | 0.402 µM (active)
Cc1ccc(C(=O)C(Cl)C(Cl)c2ccc(C)cc2)cc1 (stereo not given) | 21.8 µM (inactive) | 2.06 µM (inactive) | 2.99 µM (inactive) | 2.55 µM (inactive) | 0.622 µM (active) | 15.3 µM (inactive) | 2.21 µM (inactive) | 2.4 µM (inactive) | 4.71 µM (inactive) | 2.72 µM (inactive) | 1.49 µM (inactive) | 2.03 µM (inactive) | 1.82 µM (inactive) | 1.92 µM (inactive) | 16.3 µM (inactive) | 3.42 µM (inactive) | 5.04 µM (inactive) | 2.12 µM (inactive) | 2.52 µM (inactive) | 3.46 µM (inactive)
CCCCN(c1ccccc1)c1ncnc2c1cnn2C | 22.4 µM (inactive) | 40.6 µM (inactive) | 39.2 µM (inactive) | 22.5 µM (inactive) | 21.3 µM (inactive) | 25.2 µM (inactive) | 42 µM (inactive) | 25.7 µM (inactive) | 48.2 µM (inactive) | 41.2 µM (inactive) | 28.2 µM (inactive) | 36.8 µM (inactive) | 65 µM (inactive) | 28.7 µM (inactive) | 23.3 µM (inactive) | 24.8 µM (inactive) | > 100 µM (inactive) | 29.9 µM (inactive) | 19.9 µM (inactive) | 44.2 µM (inactive)
COc1ccc(OC)c2c1C[C@@H]1C(C#N)N3[C@H](Cc4c(OC)ccc(OC)c4[C@@H]3C)C(=O)N1[C@H]2C (stereo not given in full) | 4.42 µM (inactive) | 2.25 µM (inactive) | 3.57 µM (inactive) | 4.12 µM (inactive) | 1.9 µM (inactive) | 2.87 µM (inactive) | 4.33 µM (inactive) | 2.06 µM (inactive) | 2.67 µM (inactive) | 2.38 µM (inactive) | 2.27 µM (inactive) | 3.61 µM (inactive) | 4.42 µM (inactive) | 2.51 µM (inactive) | 11.2 µM (inactive) | 2.07 µM (inactive) | 13.5 µM (inactive) | 8.05 µM (inactive) | 1.68 µM (inactive) | 2.26 µM (inactive)
CN(C)c1ccc2nc(CC(O)(C(F)(F)F)C(F)(F)F)ccc2c1 | > 10 µM (inactive) | > 10 µM (inactive) | > 10 µM (inactive) | > 10 µM (inactive) | > 10 µM (inactive) | > 10 µM (inactive) | > 10 µM (inactive) | > 10 µM (inactive) | > 10 µM (inactive) | > 10 µM (inactive) | > 10 µM (inactive) | > 10 µM (inactive) | > 10 µM (inactive) | > 10 µM (inactive) | > 10 µM (inactive) | > 10 µM (inactive) | > 10 µM (inactive) | > 10 µM (inactive) | > 10 µM (inactive) | > 10 µM (inactive)
CNc1ccc(-c2nc3cc(C)ccc3o2)cc1 | 64.6 µM (inactive) | 72.3 µM (inactive) | 67.8 µM (inactive) | 64.6 µM (inactive) | > 100 µM (inactive) | > 100 µM (inactive) | > 100 µM (inactive) | 84.9 µM (inactive) | > 100 µM (inactive) | 58.1 µM (inactive) | > 100 µM (inactive) | > 100 µM (inactive) | > 100 µM (inactive) | > 100 µM (inactive) | 27.4 µM (inactive) | > 100 µM (inactive) | 45.3 µM (inactive) | > 100 µM (inactive) | 88.1 µM (inactive) | 58.6 µM (inactive)
